According to article PMC9585897 (Peptides, 2022):
Entries after “also recorded” stand apart in the source; their conditions may differ. Non-standard residues stand in square brackets, D forms with d. Residues, ends and D or L forms follow the SMILES beside them. Ahx = NCCCCCC(=O)O

What was measured:
[1] = biological target: SARS-CoV-2 Spike-ACE2 interaction (Severe acute respiratory syndrome coronavirus 2, UniProt P0DTC2); test: ELISA, SARS-CoV-2 Spike-ACE2 Interaction Inhibitor Screening Assay Kit; assay type: biochemical
[2] = test system: rCoV2-RBD (His-Spike S1 Protein, 13–685 aa); assay type: binding, SARS-CoV-2

Compound	IC50 [1]	Competition with ACE2 for binding to CoV2-RBD (in words) ([1]; approximately 13.48 μM of ACE2, ELISA)	Inhibition of the Spike-ACE2 interaction (in words) ([1]; competitive ELISA, BP19 1 to 128 μM in triplicates)	Binding of CoV2-RBD, sliding window array (in words) [2]
CC[C@H](C)[C@H](NC(=O)[C@H](Cc1ccccc1)NC(=O)[C@H](CCCCN)NC(=O)[C@H](CC(=O)O)NC(=O)[C@H](CC(C)C)NC(=O)[C@H](Cc1ccccc1)NC(=O)[C@@H](NC(=O)[C@H](CCCCN)NC(=O)[C@H](C)NC(=O)[C@H](CCC(N)=O)NC(=O)[C@H](CCC(=O)O)NC(=O)[C@H](CCC(=O)O)NC(=O)[C@@H](NC(=O)[C@@H](NC(=O)[C@H](CO)NC(=O)[C@H](CCC(N)=O)NC(=O)[C@H](C)NC(=O)[C@H](C)NC(=O)[C@@H](NC(=O)[C@@H](NC(=O)[C@H](C)NC(=O)[C@@H](NC(=O)[C@H](CC(C)C)NC(=O)[C@@H](N)CO)C(C)C)C(C)C)[C@@H](C)O)[C@@H](C)O)[C@@H](C)CC)[C@@H](C)O)C(=O)NCCCCCC(=O)N[C@@H](Cc1c[nH]c2ccccc12)C(N)=O [BP19] (H-SLVAVTAAQSTIEEQAKTFLDKFI[Ahx]W-NH2; N-terminus assumed)	2080 ± 380 nM	able to outcompete the natural ACE2 at lower than equimolar concentrations; also recorded: outcompeted 13.48 μM of ACE2 for binding to the CoV2-RBD	dose-responsive; also recorded: inhibitory of the Spike-ACE2 interaction in vitro	–
SLVAVTAAQSTIEEQAKTFLDKFN [9 ^N]	–	–	–	bound the CoV2-RBD the strongest; also recorded: bound the CoV2-RBD with the greatest intensity
